According to patent US20220402935A1, “HETEROCYCLIC COMPOUND” (FIMECS, INC., priority 2019, published 2022):

Assays:
[1] = target: T1, human XIAP_BIR3 domain purified protein (Homo sapiens, UniProt P98170); test: XIAP binding inhibitory activity (HTRF, b-Smac ligand); conditions: for inhibition at 3 µM: concentration of the test compound 3 μM, first symbol of cell, read-out: XIAP binding inhibition rate; for IC50: second symbol of cell, read-out: XIAP binding inhibition IC50 value
T1 construct: purchased R & D
T1 sequence (P98170 252-356 limits assumed): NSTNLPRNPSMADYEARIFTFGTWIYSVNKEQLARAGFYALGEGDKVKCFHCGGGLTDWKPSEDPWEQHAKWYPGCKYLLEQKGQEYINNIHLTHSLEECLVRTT
In short: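 HTRF competition between compound and C-terminally biotinylated Smac peptide AVPIAQK for His-tagged XIAP BIR3, both diluted to 90 nM before addition, in pH 7.5 HEPES/NaCl/BSA/Triton buffer. Eu-cryptate anti-His and streptavidin-XL665 added, ≥4 h at room temperature in the dark; inhibition % from 665/615 nm ratio versus no-compound wells.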

IRAK-M = target: T2, IRAK-M (Homo sapiens, UniProt Q9Y616); test: IRAK-M binding inhibitory activity (KINOMEscan active site-dependent competitive assay); set-up: purchased Eurofins Discover X; conditions: for IC50: second symbol of cell, read-out: IRAK-M binding inhibition IC50 value; for remaining binding at 1 µM: concentration of the test compound 1 μM, first symbol of cell, read-out: IRAK-M binding inhibition activity % Ctrl
T2 sequence (Q9Y616 1-596): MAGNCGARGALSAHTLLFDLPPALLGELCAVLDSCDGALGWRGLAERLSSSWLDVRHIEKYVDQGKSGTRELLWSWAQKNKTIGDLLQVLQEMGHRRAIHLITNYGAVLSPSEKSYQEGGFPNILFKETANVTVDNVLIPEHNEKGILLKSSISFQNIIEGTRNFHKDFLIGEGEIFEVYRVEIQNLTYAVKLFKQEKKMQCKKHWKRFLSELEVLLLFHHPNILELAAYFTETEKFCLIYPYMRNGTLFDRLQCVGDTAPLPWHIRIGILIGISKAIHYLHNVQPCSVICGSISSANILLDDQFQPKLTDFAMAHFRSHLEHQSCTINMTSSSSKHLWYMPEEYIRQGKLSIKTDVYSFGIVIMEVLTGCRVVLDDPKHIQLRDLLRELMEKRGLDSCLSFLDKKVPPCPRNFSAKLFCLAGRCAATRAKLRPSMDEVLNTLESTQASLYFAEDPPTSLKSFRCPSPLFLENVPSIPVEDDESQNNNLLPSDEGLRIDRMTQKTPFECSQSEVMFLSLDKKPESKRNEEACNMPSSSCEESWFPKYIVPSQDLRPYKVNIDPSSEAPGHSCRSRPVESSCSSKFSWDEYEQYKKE
In short: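 Active site-dependent competition binding assay (KINOMEscan) against human IRAK-M. Result expressed as % Ctrl = (compound signal − positive control signal)/(DMSO signal − positive control signal) × 100, where DMSO = 100% Ctrl and control compound = 0% Ctrl.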

Row | inhibition at 3 µM [1] [%] | IC50 (IRAK-M) [nM] | IC50 [1] [nM] | remaining binding at 1 µM (IRAK-M) [%] | SMILES
1 | > 25 | 100 to 300 |  |  | CN[C@@H](C)C(=O)N[C@H](C(=O)N1CCN(C(=O)c2cc3cc(F)ccc3n2CC(=O)N2C[C@@H](O)C[C@H]2COc2cc(CN3CCC(Oc4ccnc5ccsc45)CC3)on2)[C@@H](C)C1)C1CCCCC1 [Example 42, (S)-N-((S)-1-cyclohexyl-2-((S)-4-(5-fluoro-1-(2-((2S,4S)-4-hydroxy-2-(((5-((4-(thieno[3,2-b]pyridin-7-yloxy)piperidin-1-yl)methyl)isoxazol-3-yl)oxy)methyl)pyrrolidin-1-yl)-2-oxoethyl)-1H-indole-2-carbonyl)-3-methylpiperazin-1-yl)-2-oxoethyl)-2-(methylamino)propanamide]
2 | > 25 | 1000 to 3000 |  |  | CN[C@@H](C)C(=O)N[C@H](C(=O)N1CCN(C(=O)c2cc3cc(F)ccc3n2CC(=O)N2CCOC[C@H]2COc2cc(CN3CCC(Oc4ccnc5ccsc45)CC3)on2)[C@@H](C)C1)C1CCCCC1 [Example 47, (S)-N-((S)-1-cyclohexyl-2-((S)-4-(5-fluoro-1-(2-oxo-2-((S)-3-(((5-((4-(thieno[3,2-b]pyridin-7-yloxy)piperidin-1-yl)methyl)isoxazol-3-yl)oxy)methyl)morpholino)ethyl)-1H-indole-2-carbonyl)-3-methylpiperazin-1-yl)-2-oxoethyl)-2-(methylamino)propanamide]
3 |  |  | 300 to 3000 | < 25 | CN[C@@H](C)C(=O)N[C@H](C(=O)N1CCN(C(=O)c2ccc3c(c2)cc(C)n3CCOCCOCCOCCOc2cc(CN3CCC(Oc4ccnc5ccsc45)CC3)on2)CC1)C1CCCCC1 [Example 53, (S)-N-((S)-1-cyclohexyl-2-(4-(2-methyl-1-(2-(2-(2-(2-((5-((4-(thieno[3,2-b]pyridin-7-yloxy)piperidin-1-yl)methyl)isoxazol-3-yl)oxy)ethoxy)ethoxy)ethoxy)ethyl)-1H-indole-5-carbonyl)piperazin-1-yl)-2-oxoethyl)-2-(methylamino)propanamide]

The next lines start with the compound.

Row | SMILES | inhibition at 3 µM [1] [%] | IC50 (IRAK-M) [nM] | IC50 [1] [nM] | remaining binding at 1 µM (IRAK-M) [%]
4 | CN[C@@H](C)C(=O)N[C@H](C(=O)N1CCN(C(=O)c2cc3cc(F)c(F)cc3n2CC(=O)N2CCOC[C@@H]2COc2cc(CN3CCC(Oc4ccnc5ccsc45)CC3)on2)CC1)C1CCCCC1 [Example 45, (S)-N-((S)-1-cyclohexyl-2-(4-(5,6-difluoro-1-(2-oxo-2-((R)-3-(((5-((4-(thieno[3,2-b]pyridin-7-yloxy)piperidin-1-yl)methyl)isoxazol-3-yl)oxy)methyl)morpholino)ethyl)-1H-indole-2-carbonyl)piperazin-1-yl)-2-oxoethyl)-2-(methylamino)propanamide] |  |  | 3000 to 30000 | 25 to 50
5 | CN[C@@H](C)C(=O)N[C@H](C(=O)N1CCN(C(=O)c2cc3cc(F)ccc3n2CC(=O)N2CCOC[C@@H]2COc2cc(CN3CCC(Oc4ccnc5ccsc45)CC3)on2)[C@@H](C)C1)C1CCCCC1 [Example 46, (S)-N-((S)-1-cyclohexyl-2-((S)-4-(5-fluoro-1-(2-oxo-2-((R)-3-(((5-((4-(thieno[3,2-b]pyridin-7-yloxy)piperidin-1-yl)methyl)isoxazol-3-yl)oxy)methyl)morpholino)ethyl)-1H-indole-2-carbonyl)-3-methylpiperazin-1-yl)-2-oxoethyl)-2-(methylamino)propanamide] | > 25 | 100 to 300 |  | 
6 | CN[C@@H](C)C(=O)N[C@H](C(=O)N1CCN(C(=O)c2cc3c(OCCOCCOCCOc4cc(CN5CCC(Oc6ccnc7ccsc67)CC5)on4)c(F)c(F)cc3n2C)CC1)C1CCCCC1 [Example 52, (S)-N-((S)-1-cyclohexyl-2-(4-(5,6-difluoro-1-methyl-4-(2-(2-(2-((5-((4-(thieno[3,2-b]pyridin-7-yloxy)piperidin-1-yl)methyl)isoxazol-3-yl)oxy)ethoxy)ethoxy)ethoxy)-1H-indole-2-carbonyl)piperazin-1-yl)-2-oxoethyl)-2-(methylamino)propanamide] |  |  | 300 to 3000 | < 25
